Where two headings read alike, the source gives them in different places. One block for each compound: values may come before it.
Key:
[1] = tested on: PF-4840154-induced mechanical hyperalgesia in rats; assay: Agonist (PF-4840154)-induced mechanical hyperalgesia in rats; format: in vivo; conditions: Rattus norvegicus, 30 μmol/kg oral, PF-4840154 0.05 nmol/50 μl/paw intraplantar
Source text: Agonist (PF-4840154)-Induced Mechanical Hyperalgesia in Rats
The method is used to investigate the anti-hyperalgesic effects of the compounds listed in the present invention following agonist (PF-4840154)-induced hyperalgesic responses. The activity is indicative of TRPA1 receptor occupancy following oral dosing. Specifically, male SD rats (Charles River, Italy) weighing 70-100 g. were used. The anti-hyperalgesic effects were investigated using the electronic dynamometer test. PF-4840154 (Sigma, USA) was used to induce mechanical hyperalgesia. Local, intraplantar injection of PF-4840154 at 0.05 nmol/50 μl/paw caused the reduction of the hind paw withdrawal response induced by mechanical stimuli. Mechanical stimulation was induced in basal condition and 30, 60, 120, 180 and 240 minutes after the oral administration of the antagonists dissolved in 2.5% DMSO and 30% Solutol. Compounds were orally administered (30 μmol/kg/10 ml) to rats 1 hour before the injection of PF-4840154 into the plantar surface of a rat's hind using a micro syringe.

[2] = target: T1, native human TRPA1 receptors (Homo sapiens, UniProt O75762); assay: PF-4840154 (1 μM)-induced Ca2+ fluorescence measurements in A549 cell line; format: cell-based; conditions: for inhibition at 10 µM: 10 μM compound against 1 μM PF-4840154, A549 cells; for IC50: A549 cells
T1 construct: stably expressing native human TRPA1 receptors were used; endogenous in cells; host or cells: A549 human lung adenocarcinoma epithelial cell line
Method: PF-4840154 (1 μM)-Induced Ca^2+ Fluorescence Measurements in A549 Cell Line
Human lung adenocarcinoma epithelial cell line (A549) stably expressing native human TRPA1 receptors were used. The cells were cultured in medium consisting of Eagle's minimal essential medium (EMEM) supplemented with 10% fetal bovine serum (FBS), penicillin (100 IU/ml), streptomycin ([…]), L-glutamine (2 mM), sodium bicarbonate (2.5 g/L) and HEPES (24 mM). Cells were kept at 37° C. in 5% CO2/humidified air. For the experiments the cells were seeded at a density of 16,000 cells/well into 96-well black, clear-bottom plates. After 24 hours incubation the cells were loaded with medium supplemented with 2.5 mM probenecid, 3 μM of the calcium sensitive fluorescent dye Fluo-4 AM and 0.01% pluronic acid, for 30 min at 37° C. Afterwards the loading solution was aspirated and 100 μl/well of assay buffer: Hank's Balanced Salt Solution (HBSS) supplemented with 2.5 mM probenecid and 500 μM Brilliant Black (Aldrich) was added. Stock solutions (100 mM) of ligands were made in Dimethyl Sulfoxide (DMSO) and stored at −20° C. Serial dilutions of ligands for experimental use were made in HBSS buffer. After placing both plates (cell culture and compound plate) into the FlexStation II (Molecular Device, Union City, Calif. 94587, US), fluorescence changes were measured. On-line additions were carried out in a volume of […]. To facilitate drug diffusion into the wells in antagonist type experiments, the studies were performed at 36.5° C. and three cycles of mixing (25 μl from each well moved up and down 3 times) were performed immediately after antagonist injection to the wells. All exemplified compounds were tested alone (to address residual agonistic activity) and against 1 μM of PF-4840154 to address inhibitory activity at the initial concentration of 10 μM. For selected examples the entire inhibitory concentration-response curves were constructed and the IC50 value calculated.
PF-4840154 (1 μM) increased [Ca^2+] in the vast majority (95%) of cultured cells which were thereby identified as TRPA1 expressing cells.

[3] = read-out: % of reversal of mechanical allodynia
[4] = read-out: Maximal inhibition (%)
[5] = against PF-4840154 (1 μM)-evoked [Ca2+]i mobilization

T1 sequence (O75762 whole entry): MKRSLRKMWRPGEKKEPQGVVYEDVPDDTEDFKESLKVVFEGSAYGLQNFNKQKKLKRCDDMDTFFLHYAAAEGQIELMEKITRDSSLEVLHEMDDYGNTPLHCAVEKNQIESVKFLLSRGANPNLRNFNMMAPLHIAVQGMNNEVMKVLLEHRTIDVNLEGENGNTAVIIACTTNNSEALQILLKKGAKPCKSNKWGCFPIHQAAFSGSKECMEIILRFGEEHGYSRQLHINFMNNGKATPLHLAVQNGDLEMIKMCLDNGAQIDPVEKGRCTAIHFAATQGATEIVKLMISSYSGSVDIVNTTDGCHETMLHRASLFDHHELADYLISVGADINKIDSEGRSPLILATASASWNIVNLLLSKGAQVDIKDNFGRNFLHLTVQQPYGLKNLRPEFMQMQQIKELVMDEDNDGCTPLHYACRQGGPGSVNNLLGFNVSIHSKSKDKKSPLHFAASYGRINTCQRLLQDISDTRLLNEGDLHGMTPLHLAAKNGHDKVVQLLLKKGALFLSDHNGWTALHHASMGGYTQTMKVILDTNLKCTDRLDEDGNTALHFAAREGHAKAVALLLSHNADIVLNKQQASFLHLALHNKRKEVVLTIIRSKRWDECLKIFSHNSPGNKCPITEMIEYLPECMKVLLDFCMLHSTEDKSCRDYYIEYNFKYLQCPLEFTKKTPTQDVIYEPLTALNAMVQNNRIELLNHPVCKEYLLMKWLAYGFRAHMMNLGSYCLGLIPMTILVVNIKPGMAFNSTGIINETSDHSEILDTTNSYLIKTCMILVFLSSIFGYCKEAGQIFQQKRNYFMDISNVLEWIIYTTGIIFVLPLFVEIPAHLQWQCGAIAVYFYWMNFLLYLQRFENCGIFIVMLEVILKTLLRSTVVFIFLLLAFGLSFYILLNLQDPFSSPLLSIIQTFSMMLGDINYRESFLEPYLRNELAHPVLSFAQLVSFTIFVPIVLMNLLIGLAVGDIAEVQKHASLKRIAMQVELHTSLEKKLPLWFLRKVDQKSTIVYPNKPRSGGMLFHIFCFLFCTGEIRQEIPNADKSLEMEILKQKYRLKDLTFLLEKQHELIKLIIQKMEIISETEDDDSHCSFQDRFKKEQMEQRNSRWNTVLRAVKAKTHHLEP

Structure (SMILES): C=C(C(=O)NCc1ccnc(-c2ccc(OC(F)(F)F)cc2)c1)N(C)S(=O)(=O)c1ccc(Cl)cc1 [Example 4, 2-[(4-chlorophenyl)sulfonyl-methyl-amino]-N-[[2-[4-(trifluoromethoxy)phenyl]-4-pyridyl]methyl]prop-2-enamide]
- inhibition in vivo at 30 µmol/kg [1, 3]: 67%
- inhibition in vivo at 30 µmol/kg [1, 4]: 67%
- inhibition at 10 µM [2]: 98%
- IC50 [2, 5]: 0.078 µM

Structure (SMILES): C=C(C(=O)NCc1ccnc(-c2ccc(OC(F)(F)F)cc2)c1)N(CC)S(=O)(=O)c1ccc(Cl)cc1 [Example 5, 2-[(4-chlorophenyl)sulfonyl-ethyl-amino]-N-[[2-[4-(trifluoromethoxy)phenyl]-4-pyridyl]methyl]prop-2-enamide]
- inhibition in vivo at 30 µmol/kg [1, 3]: 76%
- inhibition in vivo at 30 µmol/kg [1, 4]: 76%
- inhibition at 10 µM [2]: 99%
- IC50 [2, 5]: 0.1 µM

Structure (SMILES): CCN(C1(C(=O)NCc2ccnc(-c3ccc(OC(F)(F)F)cc3)c2)CC1)S(=O)(=O)c1ccc(F)cc1 [Example 26, 1-[ethyl-(4-fluorophenyl)sulfonyl-amino]-N-[[2-[4-(trifluoromethoxy)phenyl]-4-pyridyl]methyl]cyclopropanecarboxamide]
- inhibition in vivo at 30 µmol/kg [1, 3]: 64%
- inhibition in vivo at 30 µmol/kg [1, 4]: 64%
- inhibition at 10 µM [2]: 100%
- IC50 [2, 5]: 0.151 µM

Structure (SMILES): CCN(C1(C(=O)NCc2cccc(-c3ccc(C(F)(F)F)cc3)c2)CC1)S(=O)(=O)c1ccc(Cl)cc1 [Example 30, 1-[(4-chlorophenyl)sulfonyl-ethyl-amino]-N-[[3-[4-(trifluoromethyl)phenyl]phenyl]methyl]cyclopropanecarboxamide]
- inhibition in vivo at 30 µmol/kg [1, 3]: 82%
- inhibition in vivo at 30 µmol/kg [1, 4]: 82%
- inhibition at 10 µM [2]: 100%
- IC50 [2, 5]: 0.1 µM

Structure (SMILES): CCN(C1(C(=O)NCc2ccnc(-c3ccc(OC(F)(F)F)cc3)c2)CC1)S(=O)(=O)c1ccc(Cl)s1 [Example 28, 1-[(5-chloro-2-thienyl)sulfonyl-ethyl-amino]-N-[[2-[4-(trifluoromethoxy)phenyl]-4-pyridyl]methyl]cyclopropanecarboxamide]
- inhibition at 10 µM [2]: 100%
- IC50 [2, 5]: 0.129 µM

Structure (SMILES): C/C=C(/C(=O)NCc1cccc(-c2ccc(C(F)(F)F)cc2)c1)N(CC)S(=O)(=O)c1ccc(Cl)cc1 [Example 24, (Z)-2-[(4-chlorophenyl)sulfonyl-ethyl-amino]-N-[[3-[4-(trifluoromethyl)phenyl]phenyl]methyl]but-2-enamide]
- inhibition at 10 µM [2]: 97%
- IC50 [2, 5]: 0.724 µM

Structure (SMILES): C=C(C(=O)NCc1ccnc(-c2ccc(OC(F)(F)F)cc2)c1)N(C)S(=O)(=O)c1ccc(C)cc1 [Example 6, 2-(methyl(p-tolylsulfonyl)amino)-N-[[2-[4-(trifluoromethoxy)phenyl]-4-pyridyl]methyl]prop-2-enamide]
- inhibition at 10 µM [2]: 100%
- IC50 [2, 5]: 0.355 µM

Structure (SMILES): CCN(C1(C(=O)NCc2cccc(-c3ccc(OC(F)(F)F)cc3)c2)CC1)S(=O)(=O)c1ccc(F)cc1 [Example 31, 1-[ethyl-(4-fluorophenyl)sulfonyl-amino]-N-[[3-[4-(trifluoromethoxy)phenyl]phenyl]methyl]cyclopropanecarboxamide]
- inhibition at 10 µM [2]: 100%
- IC50 [2, 5]: 0.057 µM

Structure (SMILES): C=C(C(=O)NCc1cc(-c2ccc(OC(F)(F)F)cc2)nc(N2CCCC2)c1)N(CC)S(=O)(=O)c1ccc(F)cc1 [Example 18, 2-[ethyl-(4-fluorophenyl)sulfonyl-amino]-N-[[2-pyrrolidin-1-yl-6-[4-(trifluoromethoxy)phenyl]-4-pyridyl]methyl]prop-2-enamide]
- inhibition at 10 µM [2]: 100%
- IC50 [2, 5]: 0.093 µM

Structure (SMILES): CCN(C1(C(=O)NCc2ccnc(-c3ccc(C(F)(F)F)cc3)c2)CC1)S(=O)(=O)c1ccc(F)cc1 [Example 25, 1-[ethyl-(4-fluorophenyl)sulfonyl-amino]-N-[[2-[4-(trifluoromethyl)phenyl]-4-pyridyl]methyl]cyclopropanecarboxamide]
- inhibition at 10 µM [2]: 100%
- IC50 [2, 5]: 0.076 µM

Structure (SMILES): C=C(C(=O)NCc1ccnc(-c2ccc(C(F)(F)F)cc2)c1)N(CC)S(=O)(=O)c1ccc(Cl)s1 [Example 12, 2-[(5-chloro-2-thienyl)sulfonyl-ethyl-amino]-N-[[2-[4-(trifluoromethyl)phenyl]-4-pyridyl]methyl]prop-2-enamide]
- inhibition at 10 µM [2]: 100%
- IC50 [2, 5]: 0.033 µM

Continued, values first:

- inhibition at 10 µM [2]: 100%
- IC50 [2, 5]: 0.118 µM
Structure (SMILES): C=C(C(=O)NCc1ccnc(-c2ccc(C(F)(F)F)cc2)c1)N(CC)S(=O)(=O)c1cccc(F)c1 [Example 36]

- inhibition at 10 µM [2]: 98%
- IC50 [2, 5]: 0.095 µM
Structure (SMILES): CCN(C1(C(=O)NCc2cc(OC(C)C)nc(-c3ccc(C(F)(F)F)cc3)c2)CC1)S(=O)(=O)c1ccc(F)cc1 [Example 49, 1-[ethyl-(4-fluorophenyl)sulfonyl-amino]-N-[[2-isopropoxy-6-[4-(trifluoromethyl)phenyl]-4-pyridyl]methyl]cyclopropanecarboxamide]

- inhibition at 10 µM [2]: 100%
- IC50 [2, 5]: 0.018 µM
Structure (SMILES): C=C(C(=O)NCc1cc(OC(C)C)nc(-c2ccc(C(F)(F)F)cc2)c1)N(CC)S(=O)(=O)c1ccc(F)cc1 [Example 44, 2-[ethyl-(4-fluorophenyl)sulfonyl-amino]-N-[[2-isopropoxy-6-[4-(trifluoromethyl)phenyl]-4-pyridyl]methyl]prop-2-enamide]

- inhibition at 10 µM [2]: 97%
- IC50 [2, 5]: 0.063 µM
Structure (SMILES): CCN(C1(C(=O)NCc2ccnc(-c3ccc(C(F)(F)F)cc3)c2)CC1)S(=O)(=O)c1ccc(Cl)s1 [Example 46, 1-[(5-chloro-2-thienyl)sulfonyl-ethyl-amino]-N-[[2-[4-(trifluoromethyl)phenyl]-4-pyridyl]methyl]cyclopropanecarboxamide]

- inhibition at 10 µM [2]: 100%
- IC50 [2, 5]: 0.02 µM
Structure (SMILES): C=C(C(=O)NCc1cc(-c2ccc(C(F)(F)F)cc2)nc(N(C)C)c1)N(CC)S(=O)(=O)c1ccc(Cl)s1 [Example 39, 2-[(5-chloro-2-thienyl)sulfonyl-ethyl-amino]-N-[[2-dimethylamino-6-[4-(trifluoromethyl)phenyl]-4-pyridyl]methyl]prop-2-enamide]

- inhibition at 10 µM [2]: 100%
- IC50 [2, 5]: 0.423 µM
Structure (SMILES): CCN(C1(C(=O)NCc2cc(-c3ccc(C(F)(F)F)cc3)ccn2)CC1)S(=O)(=O)c1ccc(F)cc1 [Example 60, 1-[ethyl-(4-fluorophenyl)sulfonyl-amino]-N-[[4-[4-(trifluoromethyl)phenyl]-2-pyridyl]methyl]cyclopropanecarboxamide]

- inhibition at 10 µM [2]: 100%
- IC50 [2, 5]: 0.151 µM
Structure (SMILES): CCN(C1(C(=O)NCc2cc(-c3ccc(C(F)(F)F)cc3)nc(N(C)C)c2)CC1)S(=O)(=O)c1ccc(F)cc1 [Example 45, N-[[2-dimethylamino-6-[4-(trifluoromethyl)phenyl]-4-pyridyl]methyl]-1-[ethyl-(4-fluorophenyl)sulfonyl-amino]cyclopropanecarboxamide]

- inhibition at 10 µM [2]: 93%
- IC50 ([2]; against PF-4840154 (1 μM), cells printed in μM): 1.5 µM
Structure (SMILES): CCN(C1(C(=O)NCc2cc(-c3ccc(C(F)(F)F)cc3)nc(N3CCN(C4CCCCC4)CC3)c2)CC1)S(=O)(=O)c1ccc(F)cc1 [Example 66, N-[[2-(4-cyclohexylpiperazin-1-yl)-6-[4-(trifluoromethyl)phenyl]-4-pyridyl]methyl]-1-[ethyl-(4-fluorophenyl)sulfonyl-amino]cyclopropanecarboxamide]
